{"source": "patent US6355616B1", "about": "“Derivative compounds derived from or based on bactericidal/permeability-increasing protein” (priority 1999, dated 2002)", "tested_on": "MDCK cells", "assay": "In vitro oral absorption screening, transepithelial transport across MDCK cell monolayers", "format": "in vitro ADME, canine", "experimental": "For these experiments, peptide-based constructs are screened for potential oral absorption in in vitro screening assays using MDCK and/or CACO-2 cells. Briefly, cultured monolayers of Madin-Derby canine kidney epithelial (MDCK) cells (ATCC Accession No. CCL-34) and/or CACO-2 (Human colon carcinoma) cells [Audus, K. L., et al. Phar. Res., 7:435-451 (1990) are grown upon collagen-coated, permeable-filter supports (Becton Dickinson, Mountain View, Calif.). The cells are grown to confluency and allowed to differentiate (e.g., about 3 days for MDCK cells or about 21 days for CACO-2 cells). The integrity of the monolayers is determined by measuring the transepithelial resistance. The cells are incubated with a peptide-based construct on the apical side for 2.5 hours in MDCK or CACO-2 screening. The transepithelial transport of the construct is measured by quantitative HPLC analysis of the incubation media on the basolateral side of the cells (forward transport). Radiolabelled mannitol and/or cortisone are used as positive controls. In addition, the efflux of the construct is measured by quantitative HLPC analysis of the incubation media on the apical side of the cells. This follows incubation of the cells with construct on the basolateral side for 2.5 hours. […]\nFollowing the days post seeding, the cells are ready for transport experiments. […]\nApical control wells containing 1.5 mL TM with tritiated mannitol (^3H-mannitol, 1 μCi/mL; Dupont NEN Research Products, #NET-101, Boston, Mass.) are analyzed separately for counts per minute (cpm) of tritium to test the integrity of the MDCK cell monolayers. […]", "data": [{"smiles": "CC[C@@H](C)[C@@H](NC(=O)[C@@H](CC(C)C)NC(=O)[C@@H](Cc1c[nH]c2ccccc12)NC(=O)[C@@H](CCCCN)NC(=O)c1ccccc1O)C(=O)N[C@H](CCC(N)=O)C(=O)N[C@H](CC(C)C)C(=O)N[C@H](Cc1ccccc1)C(=O)N[C@H](Cc1c[nH]cn1)C(=O)N[C@H](CCCCN)C(=O)N[C@H](CCCCN)C(N)=O", "note": "[XMP.560]", "values": [{"measurement": "cell absorption in MDCK cell screening assays", "value": 2, "unit": "%"}, {"measurement": "In Vitro Oral Availablity Screening (%) Forward", "setting": "apical to basolateral, 2.5 hours, donor ~100 μg/mL", "value": "≧2%"}, {"measurement": "In Vitro Oral Availablity Screening (%) Efflux", "setting": "basolateral to apical, 2.5 hours, donor ~100 μg/mL", "value": "≧2%"}]}]}
